According to PMC7884679 (British Journal of Cancer, 2020):
“Also recorded” adds a separate entry of the source.

How the values were obtained:
[1] = tested on: patients with advanced solid tumours; assay: Dose escalation 3 + 3: DLT, MTD, RP2D; type: in vivo
Excerpt: Dose escalation was by use of a standard ‘3 + 3’ design, based on the presence/absence of dose-limiting toxicities (DLTs). […] The starting dose was considered to have acceptable safety and to be in the range of the biologically active dose based on in vivo pharmacology data.[7]
The MTD was defined as the dose level below the dose at which two out of six patients experienced a DLT. Once the MTD was established, the RP2D was to be defined by the Safety Monitoring Committee (SMC), either at the MTD level or below, depending on the available safety, efficacy, PK and PD data.
(§1) In addition, a DLT could be identified by the SMC as any TEAE that impaired daily function or abnormality occurring in patients treated with peposertib at any time during the dose escalation part of the study.

[2] = clinical; settings: human, in vivo; for AUC(0-t): AUC0–12; for AUC(0-inf): AUC0–∞; for Vd/F: Vz/f
Procedure: (§2) Safety was assessed through the recording, reporting and analysis of baseline medical conditions, AEs, physical examination findings (including vital signs and monitoring for bleeding), laboratory tests, ECOG PS and 12-lead electrocardiograms. […] PK was assessed using blood samples collected pre-treatment and on-treatment. […] Tumour response was evaluated according to RECIST (v1.1). Target and non-target lesions were measured by computed tomography or magnetic resonance imaging every 6 weeks.
The cut-off for the final analysis was when the last patient completed the dose-escalation phase (29 June 2017). The All Patients Analysis Set comprised all patients who provided informed consent (screening failures plus enrolled patients) and was used to describe patient disposition and deaths. […] The Efficacy Analysis Set, including patients who received at least one treatment dose, was used for all efficacy summaries. […] The Biomarker/Pharmacogenomics Analysis Set included patients who received at least the first dose of study drug and provided at least one pre-dose sample and one post-dose sample.

[3] = tested on: patients with advanced solid tumours; assay: Safety and tolerability: treatment-emergent adverse events (CTCAE v4.03); type: in vivo
Procedure: as §1, §2
(§3) TEAEs were summarised according to Medical Dictionary for Regulatory Activities (v20.0) preferred term and system organ class. All statistical analyses (except for PK) were performed using SAS 9.1.3 or higher. Tumour assessments, based on investigator evaluations of target, non-target and new lesions according to RECIST (v1.1), were used to derive the best overall response. Trial data were summarised by dose level.

[4] = target: T1, human cyclooxygenase 1 (Homo sapiens, UniProt P23219); assay: Platelet aggregation in aspirin-naïve patients at the RP2D; type: in vivo; settings: aspirin-naïve cohort, 400 mg BID
T1 construct: endogenous in cells; host or cells: platelets of aspirin-naïve patients treated at the RP2D
T1 sequence (P23219 24-599): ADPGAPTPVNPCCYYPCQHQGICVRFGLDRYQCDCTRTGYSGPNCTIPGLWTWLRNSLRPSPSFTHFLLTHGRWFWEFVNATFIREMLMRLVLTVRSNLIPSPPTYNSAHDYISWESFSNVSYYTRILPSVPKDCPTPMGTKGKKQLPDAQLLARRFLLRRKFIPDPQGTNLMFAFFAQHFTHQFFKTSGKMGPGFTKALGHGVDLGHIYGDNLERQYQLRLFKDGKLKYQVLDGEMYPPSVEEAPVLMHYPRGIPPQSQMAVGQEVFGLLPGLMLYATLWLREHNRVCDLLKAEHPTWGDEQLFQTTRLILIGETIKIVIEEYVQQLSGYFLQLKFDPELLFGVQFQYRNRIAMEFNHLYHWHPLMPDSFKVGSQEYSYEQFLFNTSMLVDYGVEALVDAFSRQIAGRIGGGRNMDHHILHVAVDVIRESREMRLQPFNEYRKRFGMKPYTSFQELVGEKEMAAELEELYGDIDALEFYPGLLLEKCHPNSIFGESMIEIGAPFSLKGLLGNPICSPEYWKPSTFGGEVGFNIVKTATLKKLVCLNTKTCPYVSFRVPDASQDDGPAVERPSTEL

[5] = tested on: DNA-PK; settings: preclinical ref 6–8; cited from earlier work
[6] = tested on: advanced solid tumours; assay: Tumour response by RECIST v1.1; type: in vivo, human
Procedure: as §2, §3

[7] = tested on: phosphorylation of AKT; design: method as in PMID 32220971; settings: preclinical experiments ref 8; cited from earlier work
[8] = tested on: repair of radiation- or chemotherapy-induced DNA DSBs; settings: preclinical studies ref 6–10; cited from earlier work
[9] = tested on: PI3K lipid kinases; design: method as in PMID 32220971; settings: cited from earlier work
[10] = tested on: platelet aggregation; settings: preclinical data; cited from earlier work

SMILES: COc1ccc([C@@H](O)c2cc(-c3ncnc4cc(N5CCOCC5)ccc34)c(F)cc2Cl)nn1 [Peposertib, peposertib]
- maximum-tolerated dose (MTD) ([1]; dose escalation up to 400 mg BID): not reached
- recommended phase 2 dose (RP2D) ([1]; human, in vivo, 21 days): 400 mg BID
- Tmax [2]: 1.5 h
- geometric mean percent coefficient of variation (%CV) for Cmax [2]: 15.5–117%
- AUC(0-t) ([2]; 100 mg): 2290 ng·h/mL
- AUC(0-inf) ([2]; 100 mg): 2920 ng·h/mL
- Cmax ([2]; 100 mg): 440 ng/mL
- Vd/F ([2]; 100 mg): 276 L
- half-life ([2]; 100 mg, t1/2): 330 min
- Tmax ([2]; 100 mg, tmax): 1.8 h
- AUC(0-t) ([2]; 150 mg): 3040 ng·h/mL
- AUC(0-inf) ([2]; 150 mg): 3770 ng·h/mL
- Cmax ([2]; 150 mg): 695 ng/mL
- Vd/F ([2]; 150 mg): 304 L
- half-life ([2]; 150 mg, t1/2): 306 min
- Tmax ([2]; 200 mg, tmax): 1.4 h
- Vd/F ([2]; 300 mg): 662 L
- half-life ([2]; 300 mg, t1/2): 282 min
- Tmax ([2]; 300 mg, tmax): 1.9 h
- AUC(0-inf) ([2]; 400 mg): 4140 ng·h/mL
- Tmax ([2]; 400 mg, tmax): 2.4 h
- half-life ([2]; mean elimination half-life): ~330 min
- Tmax ([2]; po, median tmax): 1.1 to 2.5 h
- Number of patients with: Any TEAE leading to death ([3]; 100/QD n = 3): 0 (0) n (%)
- Number of patients with: Any peposertib related TEAE leading to death ([3]; 100/QD n = 3): 0 (0) n (%)
- Number of patients with: Any TEAE leading to death ([3]; 150/BID n = 3): 0 (0) n (%)
- Number of patients with: Any peposertib related TEAE leading to death ([3]; 150/BID n = 3): 0 (0) n (%)
- Number of patients with: Any TEAE leading to death ([3]; 200/BID n = 3): 0 (0) n (%)
- Number of patients with: Any peposertib related TEAE leading to death ([3]; 200/BID n = 3): 0 (0) n (%)
- Number of patients with: Any TEAE leading to death ([3]; 200/QD n = 3): 0 (0) n (%)
- Number of patients with: Any peposertib related TEAE leading to death ([3]; 200/QD n = 3): 0 (0) n (%)
- Number of patients with: Any TEAE leading to death ([3]; 300/BID n = 9): 0 (0) n (%)
- Number of patients with: Any peposertib related TEAE leading to death ([3]; 300/BID n = 9): 0 (0) n (%)
- Number of patients with: Any TEAE leading to death ([3]; 400/BID (RP2D) n = 6): 0 (0) n (%)
- Number of patients with: Any peposertib related TEAE leading to death ([3]; 400/BID (RP2D) n = 6): 0 (0) n (%)
- Number of patients with: Any TEAE leading to death ([3]; 400/BID n = 4): 1 (25) n (%)
- Number of patients with: Any peposertib related TEAE leading to death ([3]; 400/BID n = 4): 0 (0) n (%)
- Number of patients with: Any TEAE leading to death ([3]; Total N = 31): 1 (3) n (%)
- Number of patients with: Any peposertib related TEAE leading to death ([3]; Total N = 31): 0 (0) n (%)
- Grade 3 peposertib-related maculo-papular rash, patients ([3]; human, in vivo): 4 n
- Grade 3 peposertib-related nausea, patients ([3]; human, in vivo): 2 n
- Number of patients with: Any peposertib-related Grade ≥4 TEAE ([3]; human, in vivo): 0 (0) n (%)
- TEAE constipation, patients ([3]; human, in vivo): 10 n
- TEAE fatigue, patients ([3]; human, in vivo): 14 n
- TEAE nausea, patients ([3]; human, in vivo): 17 n
- TEAE pyrexia, patients ([3]; human, in vivo): 11 n
- Treatment-related TEAE: Constipation, Grade 3 ([3]; human, in vivo): 0 (0) n (%)
- Treatment-related TEAE: Decreased appetite, Grade 3 ([3]; human, in vivo): 0 (0) n (%)
- Treatment-related TEAE: Diarrhoea, Grade 3 ([3]; human, in vivo): 0 (0) n (%)
- Treatment-related TEAE: Dry mouth, Grade 3 ([3]; human, in vivo): 0 (0) n (%)
- Treatment-related TEAE: Periorbital oedema, Grade 3 ([3]; human, in vivo): 0 (0) n (%)
- Treatment-related TEAE: Vomiting, Grade 3 ([3]; human, in vivo): 0 (0) n (%)
- patients with a serious TEAE ([3]; human, in vivo): 55%
- patients with at least one TEAE ([3]; human, in vivo): 31 patients
- patients with at least one TEAE of Grade ≥3 ([3]; human, in vivo): 68%
- patients with peposertib-related Grade 3 TEAEs ([3]; human, in vivo): 23%
- peposertib-related Grade 4 TEAEs ([3]; human, in vivo): no peposertib-related Grade 4 TEAEs
- deaths considered treatment-related ([3]; three patients died due to disease progression): None
- effect on platelet aggregation [4]: very weak effect; also recorded: only a weak effect
- concentrations blocking DNA-PK kinase activity [5]: sub-nanomolar
- patients with stable disease for ≥12 weeks ([6]; RECIST v1.1): seven
- objective tumour responses (complete or partial) ([6]; RECIST v1.1, all doses): No objective tumour responses
- duration of stable disease ([6]; one patient, metastatic hepatocellular carcinoma, prior progression on sorafenib, at data cut-off): 69 weeks
- patients not evaluable ([6]; tumour assessment at screening only): 16%
- time remained on treatment ([6]; two patients (metastatic renal cell carcinoma; tonsillar squamous cell carcinoma), 400 mg BID): 36 weeks
- inhibition of the phosphorylation of AKT [7]: only moderate inhibition
- synergy with radiotherapy and DSB-inducing chemotherapies (e.g. etoposide, doxorubicin) [8]: demonstrated synergy
- potency on PI3K lipid kinases ([9]; compared with DNA-PK, preclinical studies ref 8): significantly lower potency
- potency against DNA-PK versus other PI3K and PI3K-related family members ([9]; preclinical ref 8): substantially greater
- inhibition of platelet aggregation [10]: reversible inhibition of platelet aggregation at micromolar concentrations
